The test system of the test is BDF1 mice, P388 leukemia ip, median survival T/C. In words: NCI In Vivo Anticancer Drug Screen. Data for tumor model P388 Leukemia (intraperitoneal) in B6D2F1 (BDF1) mice. The note with it: endpoint: median survival time, higher = longer survival. The essentials: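 Vehicle-dosed animals serve as the reference; survival of compound-dosed, tumour-implanted mice is divided by it.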

Setting [1] is: dose: 100.0 mg/kg/injection, schedule: Q04DX003 (ip), vehicle: Klucel (hydroxypropylcellulose) (HPC).
Setting [2] is: dose: 200.0 mg/kg/injection, schedule: Q01DX009 (ip), vehicle: Klucel (hydroxypropylcellulose) (HPC).
[3] abbreviates: dose: 200.0 mg/kg/injection, schedule: Q04DX003 (ip), vehicle: Klucel (hydroxypropylcellulose) (HPC).
[4] abbreviates: dose: 400.0 mg/kg/injection, schedule: Q04DX003 (ip), vehicle: Klucel (hydroxypropylcellulose) (HPC).
The mark [5] stands for this setting: dose: 100.0 mg/kg/injection, schedule: Q01DX001 (ip), vehicle: Klucel (hydroxypropylcellulose) (HPC).
Setting [6] is: dose: 200.0 mg/kg/injection, schedule: Q01DX001 (ip), vehicle: Klucel (hydroxypropylcellulose) (HPC).
Where [7] appears, read: dose: 400.0 mg/kg/injection, schedule: Q01DX001 (ip), vehicle: Klucel (hydroxypropylcellulose) (HPC).
Setting [8] is: dose: 50.0 mg/kg/injection, schedule: Q01DX009 (ip), vehicle: saline with Tween-80.
Setting [9] is: dose: 100.0 mg/kg/injection, schedule: Q01DX009 (ip), vehicle: saline with Tween-80.
Where [10] appears, read: dose: 200.0 mg/kg/injection, schedule: Q01DX009 (ip), vehicle: saline with Tween-80.
Setting [11] is: dose: 50.0 mg/kg/injection, schedule: Q04DX003 (ip), vehicle: saline with Tween-80.
Setting [12] is: dose: 100.0 mg/kg/injection, schedule: Q04DX003 (ip), vehicle: saline with Tween-80.
[13] abbreviates: dose: 200.0 mg/kg/injection, schedule: Q04DX003 (ip), vehicle: saline with Tween-80.
The mark [14] stands for this setting: dose: 50.0 mg/kg/injection, schedule: Q01DX009 (ip), vehicle: saline.

Structures are written as SMILES. Several values for one entry are separate records, joined by “and”; a condition that tells them apart may be missing. Equal values may be shown once. Toxic doses and inconclusive results are not listed.

For `C[C@]12CC[C@H]3C(=CCc4cc(O)ccc43)[C@@H]1CCC2=O`, the T/C is, setting by setting: under setting [1], 95 % of control; under setting [2], 91 % of control; under setting [3], 90 % of control; under setting [4], 95 % of control.

With `C/C=C(/C)N(C(C)=O)N(C(C)=O)c1ccc([N+](=O)[O-])cc1[N+](=O)[O-]`, the T/C is 109 % of control under setting [5]; 90 % of control under setting [1]; 100 % of control under setting [6]; 104 % of control under setting [3]; 109 % of control under setting [7]; 95 % of control under setting [4].

`CC(C)CCN(CCC(C)C)CC(O)c1cc(-c2ccc(C(F)(F)F)cc2)nc(-c2ccc(C(F)(F)F)cc2)c1` (centres undefined): the T/C runs as follows: under setting [8], 113 % of control; under setting [9], 106 % of control; under setting [10], 113 % of control.

Consider `c1ccc(C([CH2][Hg][CH2]C(c2ccccc2)c2ccccc2)c2ccccc2)cc1`, for which the T/C runs as follows: (dose: 100.0 mg/kg/injection, schedule: Q01DX009 (ip), vehicle: other) 100 % of control; under setting [1], 100 % of control; (dose: 200.0 mg/kg/injection, schedule: Q01DX009 (ip), vehicle: other) 104 % of control; under setting [3], 116 % of control; (dose: 400.0 mg/kg/injection, schedule: Q01DX009 (ip), vehicle: other) 114 % of control; under setting [4], 100 % of control.

`CCC[CH2][Sn-]([CH2]CCC)([CH2]CCC)[O]c1cc(Cl)c(Cl)cc1Cl`: the T/C was 100 % of control (dose: 0.37 mg/kg/injection, schedule: Q01DX009 (ip), vehicle: Klucel (hydroxypropylcellulose) (HPC)); 100 % of control (dose: 0.75 mg/kg/injection, schedule: Q01DX009 (ip), vehicle: Klucel (hydroxypropylcellulose) (HPC)); 100 % of control (dose: 1.5 mg/kg/injection, schedule: Q01DX009 (ip), vehicle: Klucel (hydroxypropylcellulose) (HPC)); 110 % of control (dose: 3.0 mg/kg/injection, schedule: Q01DX009 (ip), vehicle: Klucel (hydroxypropylcellulose) (HPC)); 89 % of control (dose: 6.0 mg/kg/injection, schedule: Q01DX009 (ip), vehicle: Klucel (hydroxypropylcellulose) (HPC)).

With `Cc1ccc2c(c1)nc1c3ccccc3nc(-c3ccccc3N)n21`, the T/C under setting [9] is 97 % of control; the T/C under setting [10] was 115 % of control; the T/C (dose: 400.0 mg/kg/injection, schedule: Q01DX009 (ip), vehicle: saline with Tween-80) was 108 % of control.

Regarding `Cn1c(=O)c2c(c3ccccc31)Oc1oc3ccc4ccccc4c3c(=O)c1C2`, the T/C under setting [8] is 91 % of control and the T/C under setting [10] is 94 % of control.

With `CCCN(CCC)CCC#N`, the T/C is 104 % of control under setting [11], 100 % of control under setting [12] and 90 % of control under setting [13].

Take `COc1ccc(N2CCN(c3ccc([N+](=O)[O-])c4no[n+]([O-])c34)CC2)cc1`: the T/C (dose: 15.0 mg/kg/injection, schedule: Q04DX003 (ip), vehicle: saline with Tween-80) was 101 % of control; the T/C (dose: 30.0 mg/kg/injection, schedule: Q04DX003 (ip), vehicle: saline with Tween-80) was 100 % of control; the T/C (dose: 60.0 mg/kg/injection, schedule: Q04DX003 (ip), vehicle: saline with Tween-80) is 104 % of control.

As to `N=C(N)c1ccc(C(=O)Oc2ccc([N+](=O)[O-])cc2)cc1`, the T/C is 109 % of control under setting [11], 109 % of control under setting [12] and 109 % of control under setting [13].

As to `OC(CBr)(c1ccccc1)c1ccccc1`, the T/C reads like this: (dose: 12.5 mg/kg/injection, schedule: Q04DX003 (ip), vehicle: saline with Tween-80) 95 % of control; under setting [11], 100 % of control and 115 % of control; under setting [12], 99 % of control; under setting [13], 112 % of control; (dose: 400.0 mg/kg/injection, schedule: Q04DX003 (ip), vehicle: saline with Tween-80) 111 % of control.

With `O=C(Nc1ccc(NC(=O)c2ccc(C3=NCCCN3)cc2)cc1)c1ccc(C2=NCCCN2)cc1`, the T/C is 159 % of control (dose: 33.0 mg/kg/injection, schedule: Q04DX003 (ip), vehicle: saline with Tween-80); 153 % of control and 181 % of control under setting [11]; 168 % of control and 207 % of control (dose: 75.0 mg/kg/injection, schedule: Q04DX003 (ip), vehicle: saline with Tween-80).

On to `CC1CC2=CC(=O)C=CC2(C)C2CCC3(C)C(O)CCC3C12` (centres undefined), for which the T/C runs as follows: (dose: 1.56 mg/kg/injection, schedule: Q01DX009 (ip), vehicle: Klucel (hydroxypropylcellulose) (HPC)) 86 % of control; (dose: 3.12 mg/kg/injection, schedule: Q01DX009 (ip), vehicle: Klucel (hydroxypropylcellulose) (HPC)) 107 % of control; (dose: 6.25 mg/kg/injection, schedule: Q01DX009 (ip), vehicle: Klucel (hydroxypropylcellulose) (HPC)) 99 % of control; (dose: 25.0 mg/kg/injection, schedule: Q01DX009 (ip), vehicle: Klucel (hydroxypropylcellulose) (HPC)) 95 % of control; (dose: 50.0 mg/kg/injection, schedule: Q01DX009 (ip), vehicle: Klucel (hydroxypropylcellulose) (HPC)) 91 % of control; under setting [14], 90 % of control. In addition, the T/C is, setting by setting: (dose: 100.0 mg/kg/injection, schedule: Q01DX009 (ip), vehicle: Klucel (hydroxypropylcellulose) (HPC)) 95 % of control and 97 % of control; under setting [1], 91 % of control; under setting [2], 96 % of control and 97 % of control; under setting [3], 95 % of control; (dose: 400.0 mg/kg/injection, schedule: Q01DX009 (ip), vehicle: Klucel (hydroxypropylcellulose) (HPC)) 86 % of control and 88 % of control; under setting [4], 87 % of control.

Take `O=C1C(NCCO)=C(N2CC2)C(=O)C(NCCO)=C1N1CC1`: the T/C (dose: 0.18 mg/kg/injection, schedule: Q01DX009 (ip), vehicle: saline) is 248 % of control and 93 % of control; the T/C (dose: 0.37 mg/kg/injection, schedule: Q01DX009 (ip), vehicle: saline) is 275 % of control and 203 % of control; the T/C (dose: 0.75 mg/kg/injection, schedule: Q01DX009 (ip), vehicle: saline) is 194 % of control.

Regarding `O=S(=O)(O)c1ccc(CCCCCCl)cc1`, the T/C by setting is: (dose: 25.0 mg/kg/injection, schedule: Q01DX009 (ip), vehicle: saline) 109 % of control; under setting [14], 100 % of control; (dose: 100.0 mg/kg/injection, schedule: Q01DX001 (ip), vehicle: saline) 110 % of control; (dose: 100.0 mg/kg/injection, schedule: Q01DX009 (ip), vehicle: saline) 104 % of control and 110 % of control; (dose: 200.0 mg/kg/injection, schedule: Q01DX001 (ip), vehicle: saline) 90 % of control; (dose: 200.0 mg/kg/injection, schedule: Q01DX009 (ip), vehicle: saline) 100 % of control. For the same compound, the T/C (dose: 400.0 mg/kg/injection, schedule: Q01DX001 (ip), vehicle: saline) was 90 % of control and the T/C (dose: 400.0 mg/kg/injection, schedule: Q01DX009 (ip), vehicle: saline) is 110 % of control.

As for `COc1ccc(C(=O)C(C)C(O)(C(F)(F)F)C(F)(F)F)cc1` (centres undefined), the T/C reads like this: under setting [5], 109 % of control; under setting [6], 109 % of control; under setting [7], 109 % of control.

On to `O=C(SCO)c1ccccc1`, for which the T/C was 100 % of control (dose: 100.0 mg/kg/injection, schedule: Q04DX003 (sc), vehicle: olive oil, sesame oil, peanut oil); 110 % of control (dose: 200.0 mg/kg/injection, schedule: Q04DX003 (sc), vehicle: olive oil, sesame oil, peanut oil); 100 % of control (dose: 400.0 mg/kg/injection, schedule: Q04DX003 (sc), vehicle: olive oil, sesame oil, peanut oil).

In the case of `CC1=NN(c2ccccc2)C(=O)C1=Nc1c(C)[nH]n(-c2ccccc2)c1=O`, the T/C reads like this: (dose: 30.0 mg/kg/injection, schedule: Q01DX009 (ip), vehicle: saline with Tween-80) 96 % of control; (dose: 60.0 mg/kg/injection, schedule: Q01DX009 (ip), vehicle: saline with Tween-80) 91 % of control.

`CCOC(=O)N(C)C(C)Cc1ccccc1` (centres undefined): the T/C is, setting by setting: under setting [8], 105 % of control; under setting [9], 118 % of control.

The values are drawn from PubChem BioAssay AID328 (DTP/NCI, 2004).
